Laboratory results reported in patent US20210198313A1, “METHOD OF PRODUCING IMIDAZOLE DIPEPTIDES” (Tokai Bussan Co., Ltd., priority 2019, published 2021).

Experiments:
[1] = Titration of 0.1 M aqueous solutions with 0.1 N sulfuric acid and 0.1 N sodium hydroxide to determine dissociation constants and charge state; format: physicochemical
Description: In view of the difference between the adsorption behaviors of imidazole dipeptides, including anserine and carnosine, and creatinine on a strongly acidic cation exchange resin, each electrical dissociation behavior of the compounds with respect to pH values was experimentally measured by the titration method as mentioned below. The terms “pK” and “pI” are the dissociation constant and the isoelectric point, respectively.
The 0.1 M aqueous solutions of L-anserine, L-carnosine and creatinine were prepared and the titration curves were generated with 0.1 N sulfuric acid and 0.1 N sodium hydroxide according to known methods. From each titration curve, pK1, pKR and pK2 were determined.
In Table 1, with respect to anserine and carnosine, pK1 represents the dissociation of carboxyl group, pKR represents the dissociation of imidazole group, and pK2 represents the dissociation of amino group. With respect to creatinine, pKR represents the dissociation of imidazole group.
Based on the measured results, the state of the charge of anserine, carnosine and creatinine at each pH value is shown in FIG. 1.

[2] = cited from earlier work
[3] = Dissociation constants disclosed in published references; format: physicochemical; settings: converted from literature pKb 9.20
Description: For example, Bate-Smith (Bate-Smith, E. C., J. Physiol. (London) 92, 336 (1938)) discloses the results that pK2 of carnosine was 6.83, and Doutsch et al. (Dutch, A., Eggleton, P., Biochem. J. 32, 209 (1938)), discloses the results that pK2 of anserin was 7.04. In these references, pK2 means the dissociation constant of imidazole group and corresponds to pKR in Table 1. […] If converted to pKR, it is 4.8. Thus, each pKR for anserine, carnosine and creatinine in Table 1 was well consistent with the data described in the references.

[4] = 0.1 M aqueous solution, titration curve

pI (isoelectric point) [1, 4] | pK1 (dissociation of carboxyl group) [1, 4] | pK2 (dissociation of amino group) [1, 4] | pKR (dissociation of imidazole group) [1, 4] | positive charge ([1]; pH 5, FIG. 1) | positive charge ([1]; pH 7, FIG. 1) | positive charge ([1]; pH 8, FIG. 1) | pKR converted from pKb [3] | Compound | pK2 (dissociation constant of imidazole group, corresponds to pKR in Table 1) ([2]; literature (Bate-Smith 1938; Deutsch and Eggleton 1938)) | pKb ([2]; literature (Eadie and Hunter 1926))
8.3 | 2.8 | 9.8 | 6.8 | 1 valent | 0.5 valent | 0.1 valent | – | NCCC(=O)N[C@@H](Cc1c[nH]cn1)C(=O)O [Carnosine, β-alanyl histidine] | 6.83 | –
– | – | – | – | – | – | – | 4.8 | CN1CC(=O)NC1=N [Creatinine, creatinine] | – | 9.20
